Data: US11208412B2 (DAEGU-GYEONGBUK MEDICAL INNOVATION FOUNDATION, priority 2017, dated 2021)

Experiments:
Assay in all cases: Kinase selectivity, DiscoverX scanMAX Kinase assay panel (% control)
Assay type in all cases: binding
[1] = target: T1, kinases of the scanMAX Kinase assay panel (Homo sapiens, UniProt Q15831); details: LKB1; 1 uM
T1 construct: purchased DiscoverX Co. (contract measurement) scanMAX Kinase assay panel
T1 sequence (Q15831 1-433): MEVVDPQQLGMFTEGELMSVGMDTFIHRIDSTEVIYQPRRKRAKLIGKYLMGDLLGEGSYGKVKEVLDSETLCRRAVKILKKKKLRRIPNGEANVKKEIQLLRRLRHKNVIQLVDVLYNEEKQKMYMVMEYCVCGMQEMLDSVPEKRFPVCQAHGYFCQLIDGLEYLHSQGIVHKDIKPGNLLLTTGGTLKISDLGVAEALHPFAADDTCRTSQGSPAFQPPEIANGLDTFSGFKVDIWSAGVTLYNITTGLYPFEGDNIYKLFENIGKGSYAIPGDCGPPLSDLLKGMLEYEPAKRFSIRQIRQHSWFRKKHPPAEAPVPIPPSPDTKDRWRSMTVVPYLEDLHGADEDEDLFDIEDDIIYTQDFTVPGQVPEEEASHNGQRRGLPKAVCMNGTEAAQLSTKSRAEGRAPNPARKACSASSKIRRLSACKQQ
Procedure, shortened: (§1)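 Each enzyme is treated with drug at 1 uM in DMSO, then signal is scaled between a positive control (0%) and DMSO (100%) to give % control. Kinases with % control under 35% are scored as inhibited.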

[2] = target: T2, kinases of the scanMAX Kinase assay panel (Homo sapiens, UniProt Q15746); details: MYLK; 1 uM
T2 construct: purchased DiscoverX Co. (contract measurement) scanMAX Kinase assay panel
T2 sequence (Q15746 whole entry): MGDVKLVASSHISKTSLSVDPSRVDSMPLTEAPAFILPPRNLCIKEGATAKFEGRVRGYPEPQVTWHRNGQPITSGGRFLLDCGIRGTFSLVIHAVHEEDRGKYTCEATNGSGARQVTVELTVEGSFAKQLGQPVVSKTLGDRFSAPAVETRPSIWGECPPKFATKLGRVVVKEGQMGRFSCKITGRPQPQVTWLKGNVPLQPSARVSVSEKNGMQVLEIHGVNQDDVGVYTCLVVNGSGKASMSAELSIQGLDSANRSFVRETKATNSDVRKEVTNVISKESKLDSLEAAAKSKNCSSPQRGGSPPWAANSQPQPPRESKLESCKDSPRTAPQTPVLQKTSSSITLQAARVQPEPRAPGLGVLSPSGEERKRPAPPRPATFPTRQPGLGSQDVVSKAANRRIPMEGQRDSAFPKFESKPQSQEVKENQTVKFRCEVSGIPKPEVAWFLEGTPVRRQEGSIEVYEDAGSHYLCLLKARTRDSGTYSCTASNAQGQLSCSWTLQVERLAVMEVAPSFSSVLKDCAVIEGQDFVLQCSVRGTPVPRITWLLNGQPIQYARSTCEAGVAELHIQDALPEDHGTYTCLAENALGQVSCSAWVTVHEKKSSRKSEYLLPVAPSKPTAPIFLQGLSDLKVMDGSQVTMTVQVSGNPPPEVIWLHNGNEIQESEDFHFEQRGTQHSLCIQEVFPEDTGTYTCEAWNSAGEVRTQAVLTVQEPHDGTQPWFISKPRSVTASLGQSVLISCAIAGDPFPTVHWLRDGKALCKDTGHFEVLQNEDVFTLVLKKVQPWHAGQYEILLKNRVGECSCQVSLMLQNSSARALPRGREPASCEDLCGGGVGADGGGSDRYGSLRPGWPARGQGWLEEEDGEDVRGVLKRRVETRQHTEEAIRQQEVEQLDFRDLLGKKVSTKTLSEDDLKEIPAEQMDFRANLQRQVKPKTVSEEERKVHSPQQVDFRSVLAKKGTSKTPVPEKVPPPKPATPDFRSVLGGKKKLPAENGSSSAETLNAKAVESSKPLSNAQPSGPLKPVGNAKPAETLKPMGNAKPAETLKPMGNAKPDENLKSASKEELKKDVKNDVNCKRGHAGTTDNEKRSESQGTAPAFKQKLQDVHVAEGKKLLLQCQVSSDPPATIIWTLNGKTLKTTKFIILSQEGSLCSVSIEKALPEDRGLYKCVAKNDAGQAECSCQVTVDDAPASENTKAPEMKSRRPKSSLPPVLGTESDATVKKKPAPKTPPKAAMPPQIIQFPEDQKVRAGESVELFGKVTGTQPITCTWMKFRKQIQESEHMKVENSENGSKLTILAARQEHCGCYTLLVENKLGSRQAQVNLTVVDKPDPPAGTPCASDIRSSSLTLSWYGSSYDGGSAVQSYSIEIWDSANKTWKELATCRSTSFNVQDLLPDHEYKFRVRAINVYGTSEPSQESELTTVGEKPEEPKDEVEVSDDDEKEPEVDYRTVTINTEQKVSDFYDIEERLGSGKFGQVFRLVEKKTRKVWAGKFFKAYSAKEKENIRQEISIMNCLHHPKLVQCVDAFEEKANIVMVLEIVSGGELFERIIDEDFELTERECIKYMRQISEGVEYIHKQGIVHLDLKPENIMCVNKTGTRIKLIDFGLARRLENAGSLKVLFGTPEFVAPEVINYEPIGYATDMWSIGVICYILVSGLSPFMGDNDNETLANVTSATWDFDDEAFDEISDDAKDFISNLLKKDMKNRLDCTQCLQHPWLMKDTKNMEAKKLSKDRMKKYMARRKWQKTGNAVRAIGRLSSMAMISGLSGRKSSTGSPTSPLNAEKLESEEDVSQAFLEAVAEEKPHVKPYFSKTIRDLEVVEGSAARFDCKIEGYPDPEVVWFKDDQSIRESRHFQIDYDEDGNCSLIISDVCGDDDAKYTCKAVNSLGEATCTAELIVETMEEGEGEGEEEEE
Procedure, shortened: as §1

[3] = target: T3, kinases of the scanMAX Kinase assay panel (Homo sapiens, UniProt Q8TD19); details: NEK9; 1 uM
T3 construct: purchased DiscoverX Co. (contract measurement) scanMAX Kinase assay panel
T3 sequence (Q8TD19 1-979): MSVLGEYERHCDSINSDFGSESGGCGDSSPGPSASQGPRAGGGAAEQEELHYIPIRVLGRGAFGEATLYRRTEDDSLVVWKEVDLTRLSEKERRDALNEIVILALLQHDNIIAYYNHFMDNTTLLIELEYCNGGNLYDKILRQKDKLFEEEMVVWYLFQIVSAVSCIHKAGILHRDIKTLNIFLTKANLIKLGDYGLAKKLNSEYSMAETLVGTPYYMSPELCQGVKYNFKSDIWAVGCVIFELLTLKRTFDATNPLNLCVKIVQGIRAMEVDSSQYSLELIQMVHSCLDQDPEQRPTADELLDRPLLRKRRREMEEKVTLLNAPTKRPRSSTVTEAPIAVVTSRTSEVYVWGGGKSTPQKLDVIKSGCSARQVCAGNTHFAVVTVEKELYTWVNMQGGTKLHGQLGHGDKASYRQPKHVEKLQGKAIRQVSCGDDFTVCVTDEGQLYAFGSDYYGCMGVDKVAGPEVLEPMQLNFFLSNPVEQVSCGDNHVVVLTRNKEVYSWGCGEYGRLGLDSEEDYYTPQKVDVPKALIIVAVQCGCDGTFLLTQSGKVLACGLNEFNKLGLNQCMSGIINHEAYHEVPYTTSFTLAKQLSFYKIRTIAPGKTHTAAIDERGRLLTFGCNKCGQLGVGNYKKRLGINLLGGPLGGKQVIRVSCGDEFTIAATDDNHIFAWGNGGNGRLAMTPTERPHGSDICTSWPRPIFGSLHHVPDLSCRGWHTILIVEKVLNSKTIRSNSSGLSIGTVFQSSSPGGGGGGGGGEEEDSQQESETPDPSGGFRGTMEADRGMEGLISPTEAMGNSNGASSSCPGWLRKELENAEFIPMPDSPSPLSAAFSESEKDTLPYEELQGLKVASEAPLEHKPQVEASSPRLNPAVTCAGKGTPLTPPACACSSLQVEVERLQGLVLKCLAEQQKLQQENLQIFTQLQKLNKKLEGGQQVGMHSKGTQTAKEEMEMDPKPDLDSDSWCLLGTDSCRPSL
Procedure, shortened: as §1

[4] = target: T4, kinases of the scanMAX Kinase assay panel (Homo sapiens, UniProt Q9Y6M4); details: CSNK1G3; 1 uM
T4 construct: purchased DiscoverX Co. (contract measurement) scanMAX Kinase assay panel
T4 sequence (Q9Y6M4 whole entry): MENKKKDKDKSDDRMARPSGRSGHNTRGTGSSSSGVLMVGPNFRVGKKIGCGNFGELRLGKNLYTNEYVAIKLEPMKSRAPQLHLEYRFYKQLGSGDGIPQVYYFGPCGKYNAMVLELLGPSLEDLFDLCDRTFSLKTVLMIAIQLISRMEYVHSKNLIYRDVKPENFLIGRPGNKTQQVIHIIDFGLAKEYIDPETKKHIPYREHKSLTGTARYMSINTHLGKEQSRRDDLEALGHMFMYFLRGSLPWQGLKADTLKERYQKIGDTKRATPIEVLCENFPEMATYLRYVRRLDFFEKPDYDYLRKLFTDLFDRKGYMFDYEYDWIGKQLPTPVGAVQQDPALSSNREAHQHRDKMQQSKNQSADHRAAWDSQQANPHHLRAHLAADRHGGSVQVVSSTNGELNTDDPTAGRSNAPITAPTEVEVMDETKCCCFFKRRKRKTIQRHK
Procedure, shortened: as §1

[5] = target: T5, kinases of the scanMAX Kinase assay panel (Homo sapiens, UniProt Q9HBY8); details: kinase SGK2; 1 uM in DMSO
T5 construct: purchased DiscoverX Co. (contract measurement) scanMAX Kinase assay panel
T5 sequence (Q9HBY8 1-367): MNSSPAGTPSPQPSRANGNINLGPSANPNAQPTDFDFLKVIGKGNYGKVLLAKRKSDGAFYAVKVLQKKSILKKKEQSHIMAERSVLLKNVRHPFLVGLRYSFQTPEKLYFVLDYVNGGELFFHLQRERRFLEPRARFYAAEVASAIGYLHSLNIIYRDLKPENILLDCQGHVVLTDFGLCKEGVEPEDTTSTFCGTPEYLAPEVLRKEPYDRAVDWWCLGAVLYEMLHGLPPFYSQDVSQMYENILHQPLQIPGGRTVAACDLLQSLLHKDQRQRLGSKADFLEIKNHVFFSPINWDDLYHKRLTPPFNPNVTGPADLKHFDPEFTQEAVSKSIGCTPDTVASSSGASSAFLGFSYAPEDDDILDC
Procedure, shortened: as §1

[6] = target: T6, kinases of the scanMAX Kinase assay panel (Homo sapiens, UniProt Q9HCP0); details: CSNK1G1; 1 uM
T6 construct: purchased DiscoverX Co. (contract measurement) scanMAX Kinase assay panel
T6 sequence (Q9HCP0 whole entry): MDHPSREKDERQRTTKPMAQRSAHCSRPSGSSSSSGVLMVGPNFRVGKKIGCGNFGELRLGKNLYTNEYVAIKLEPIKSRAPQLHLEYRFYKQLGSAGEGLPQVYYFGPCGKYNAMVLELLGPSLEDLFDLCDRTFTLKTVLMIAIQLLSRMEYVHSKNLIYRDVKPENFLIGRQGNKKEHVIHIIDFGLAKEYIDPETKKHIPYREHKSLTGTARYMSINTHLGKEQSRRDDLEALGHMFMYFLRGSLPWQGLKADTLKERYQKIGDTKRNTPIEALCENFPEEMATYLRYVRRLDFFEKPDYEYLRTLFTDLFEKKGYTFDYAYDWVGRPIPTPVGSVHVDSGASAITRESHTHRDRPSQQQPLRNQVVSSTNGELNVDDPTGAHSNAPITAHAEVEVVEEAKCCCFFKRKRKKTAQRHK
Procedure, shortened: as §1

SMILES | remaining binding at 1 µM [1] [%] | remaining binding at 1 µM [2] [%] | remaining binding at 1 µM [3] [%] | remaining binding at 1 µM [4] [%] | remaining binding at 1 µM [5] [%] | remaining binding at 1 µM [6] [%]
CNc1nc(Nc2ccc(C(=O)N3CCOCC3)cc2OC)nc2[nH]cc(C#N)c12 [Example 1, 2-((2-methoxy-4-(morpholine-4-carbonyl)phenyl)amino)-4-(methylamino)-7H-pyrrolo[2,3-d]pyrimidine-5-carbonitrile] | 91 | 0 | 100 | 58 | 82 | 95
CC1(Nc2nc(Nc3cnn([C@H]4CCN(C5COC5)C[C@@H]4F)c3Cl)nc3[nH]cc(C#N)c23)CC1 [Example 52, 2-((5-chloro-1-((3S,4S)-3-fluoro-1-(oxetane-3-yl)piperidine-4-yl)-1H-pyrazole-4-yl)amino)((1-methylcyclopropyl)amino)-7H-pyrrolo[2,3-d]pyrimidine-5-carbonitrile] | 31 | 0.55 | 73 | 0.15 | 74 | 6.4
CCNc1nc(Nc2ccc(C(=O)N3CCC(N4CCOCC4)CC3)cc2OC)nc2[nH]cc(C(F)(F)F)c12 [Example 104, (4-((4-(ethylamino)-5-(trifluoromethyl)-7H-pyrrolo[2,3-d]pyrimidine-2-yl)amino)-3-methoxyphenyl)(4-morpholinopiperidine-1-yl)methanone] | 87 | 0.95 | 99 | 90 | 100 | 73
